Experimental data as given in the NIST ThermoML archive (doi:10.1021/je200178b).

Assay: mean ionic activity coefficient (dimensionless); mn = molality of the nth substance listed, in mol/kg
Details: 298.15 K, 101 kPa, Liquid, ion-selective electrode

[Cs+].[F-] [cesium fluoride (CsF)] + O
Details | mean ionic activity coefficient
m1 = 0.0043 | 0.9338
m1 = 0.0085 | 0.9112
m1 = 0.0128 | 0.8953
m1 = 0.0172 | 0.8824
m1 = 0.0215 | 0.872
m1 = 0.0258 | 0.863
m1 = 0.0302 | 0.8551
m1 = 0.0346 | 0.848
m1 = 0.0391 | 0.8416
m1 = 0.0437 | 0.8355
m1 = 0.0523 | 0.8257
m1 = 0.0608 | 0.8173
m1 = 0.0698 | 0.8096
m1 = 0.0787 | 0.8028
m1 = 0.0875 | 0.7968
m1 = 0.1003 | 0.7892
m1 = 0.1138 | 0.7822
m1 = 0.1268 | 0.7762
m1 = 0.1455 | 0.7689
m1 = 0.1632 | 0.7629
m1 = 0.1817 | 0.7575
m1 = 0.2045 | 0.7517
m1 = 0.226 | 0.7471
m1 = 0.2524 | 0.7423
m1 = 0.2823 | 0.7377
m1 = 0.3166 | 0.7335
m1 = 0.3589 | 0.7294
m1 = 0.4086 | 0.7259
m1 = 0.4762 | 0.7227

[F-].[Rb+] [rubidium fluoride (RbF)] + O
Details | mean ionic activity coefficient
m1 = 0.0046 | 0.9305
m1 = 0.0096 | 0.9047
m1 = 0.014 | 0.8889
m1 = 0.0187 | 0.8759
m1 = 0.0232 | 0.8654
m1 = 0.0275 | 0.8567
m1 = 0.0321 | 0.8486
m1 = 0.0367 | 0.8414
m1 = 0.0411 | 0.8351
m1 = 0.0506 | 0.8235
m1 = 0.0596 | 0.8141
m1 = 0.0685 | 0.806
m1 = 0.0772 | 0.799
m1 = 0.0915 | 0.7891
m1 = 0.1058 | 0.7806
m1 = 0.1293 | 0.769
m1 = 0.1517 | 0.7599
m1 = 0.1747 | 0.7521
m1 = 0.2107 | 0.7421
m1 = 0.2467 | 0.7342
m1 = 0.2819 | 0.7278
m1 = 0.3349 | 0.7202
m1 = 0.3859 | 0.7146
m1 = 0.4584 | 0.7086
m1 = 0.5332 | 0.7043
m1 = 0.6214 | 0.701
